Here are results for one compound from BindingDB's records for doi:10.1016/j.chembiol.2009.07.006 (Burnham Institute For Medical Research, 2009).

For the assay, the target named is T1, Nicotinate-nucleotide adenylyltransferase (Escherichia coli (strain K12), UniProt P0A752).
T1 sequence (P0A752 whole entry): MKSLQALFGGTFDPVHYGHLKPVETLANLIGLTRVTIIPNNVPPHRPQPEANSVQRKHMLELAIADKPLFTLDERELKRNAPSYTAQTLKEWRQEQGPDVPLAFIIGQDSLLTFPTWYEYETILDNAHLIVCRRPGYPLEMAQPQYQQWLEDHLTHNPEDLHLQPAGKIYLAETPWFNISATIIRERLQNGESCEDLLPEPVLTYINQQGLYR
Briefly: Enzymatic Inhibition Assay. The source says:
The enzymatic assay was masured at fixed NaMN and ATP concentration (equal to two-fold km values)with various concentration of inhibitory compounds.

Where “and” joins values, the source holds several entries; their conditions need not be identical. Equal entries are not always repeated.

In general, Ki refers to the equilibrium dissociation constant of an inhibitor or competing ligand from its target. A low value points to a stronger hold on the target. As to `O=C(CCC(=O)Nc1cccc(Cl)c1)NN=Cc1c2ccccc2cc2ccccc12` [NadD inhibitor 1_02], the Ki was 8 µM and 5 µM.
